Laboratory results: patent publication US4324783A, “Antibacterial composition for medical use” (Toyama Chemical Co., Ltd., priority 1977, dated 1982)

What was measured:
[1] = tested on: clinically isolated strains; assay: Test Examples 1 to 3 with other β-lactamase-inhibiting penicillins or cephalosporins; type: cell-based; conditions: in place of Methicillin or Cloxacillin
Description: (§1) Heart Infusion agar containing a prescribed amount of Methicillin sodium or T-1220 was inoculated with the test bacterium at a rate of about 10^8 cells/ml. After incubation for 18 hours at 37° C., the growth of the test bacterium was inspected.
The β-lactamase activity was assayed by the iodometric assay method at 30° C., following the procedure of Perret [C.J. Perret, "Iodometric Assay of Penicillinase," Nature, 174, 1012-1013 (1954)], except that a 0.1 molar phosphate buffer solution (pH 7.0) was used in place of the 0.2 molar phosphate buffer solution (pH 6.5). One unit of β-lactamase activity corresponds to the quantity of β-lactamase which decomposes 1 μmole/hour of T-1220 in a 0.1 molar phosphate buffer solution (pH 7.0) containing 8 m moles of the substrate.
A pathogenic bacterium was inoculated at a rate of about 10^8 cells/ml into a Heart Infusion broth containing T-1220 (200 μg/ml) alone, T-1220 (200 μg/ml) plus Methicillin sodium (200 μg/ml), T-1220 (200 μg/ml) plus Cloxacillin sodium (200 μg/ml), Methicillin sodium (200 μg/ml) alone, or Cloxacillin sodium (200 μg/ml) alone. The inoculated broth was incubated at 37° C. and the number of live cells in the culture broth was determined at predetermined time intervals.
The test results described in the foregoing Test Examples 1 to 3 are typical of the pharmacological activity of the antibacterial composition of this invention.

[2] = tested on: K. pneumoniae Y-53; assay: Effect of combined use on experimental infection in mice (protection effect); type: in vivo, ICR mice infected with K. pneumoniae; conditions: K. pneumoniae Y-53, 1.0 × 10^7 cells/mouse intraperitoneal; subcutaneous, one and two hours after inoculation
Source text: (§2) Male mice (5 mice per group) of the ICR strain, 4 weeks of age, were peritoneally inoculated with the prescribed number of pathogenic bacteria suspended in 5% mucin. After one hour and two hours following the inoculation, test preparations shown in Table 4 were subcutaneously administered to examine the protection effect.

[3] = tested on: Escherichia coli TK-3 strain; assay: Minimum inhibitory concentration; type: cell-based; conditions: TK3STRAIN
[4] = tested on: P. aeruginosa S-111; assay: Effect of combined use on experimental infection in mice (protection effect); type: in vivo, ICR mice infected with P. aeruginosa; conditions: P. aeruginosa S-111, 1.6 × 10^6 cells/mouse intraperitoneal; subcutaneous, one and two hours after inoculation
Source text: as §2

[5] = tested on: Pseudomonas aeruginosa S-12 strain; assay: Minimum inhibitory concentration; type: cell-based; conditions: S12STRAIN
[6] = tested on: Escherichia coli TK-3 strain; assay: Growth-inhibition test on clinically isolated strain (Heart Infusion agar, about 10^8 cells/ml, 18 hours at 37° C.); type: cell-based; parameters: key: (+) means that the test bacterium grew; (-) means that the test bacterium did not grow
Description: as §1

[7] = tested on: Pseudomonas aeruginosa S-12 strain; assay: as above; type: cell-based; parameters: key: (+) means that the test bacterium grew; (-) means that the test bacterium did not grow
Description: as §1

[8] = T-1220 0 + methicillin sodium 50 μg/ml
[9] = T-1220 0 + methicillin sodium 100 μg/ml
[10] = T-1220 0 + methicillin sodium 200 μg/ml

Q: How did the “results in the Test Examples when used as the β-lactamase-inhibiting penicillin or cephalosporin” value [1] turn out when `Cc1onc(-c2ccccc2)c1C(=O)N[C@@H]1C(=O)N2[C@@H]1SC(C)(C)[C@@H]2C(=O)O` [Oxacillin] was run?
A: Its value is “results similar to those obtained with Methicillin and Cloxacillin”.

Q: Which “results in the Test Examples when used as the β-lactamase-inhibiting penicillin or cephalosporin” value [1] does the source give for `CO[C@@]1(NC(=O)Cc2cccs2)C(=O)N2C(C(=O)O)=C(COC(N)=O)CS[C@@H]21` [Cefoxitin] here?
A: Its value is “results similar to those obtained with Methicillin and Cloxacillin”.

Q: Which “results in the Test Examples when used as the β-lactamase-inhibiting penicillin or cephalosporin” value [1] does the source give for `Cc1onc(-c2c(F)cccc2Cl)c1C(=O)N[C@@H]1C(=O)N2[C@@H]1SC(C)(C)[C@@H]2C(=O)O` [Flucloxacillin] here?
A: The value was “results similar to those obtained with Methicillin and Cloxacillin”.

Q: How did the “ED50 (protection effect)” value [2] turn out when `CCN1CCN(C(=O)N[C@@H](C(=O)N[C@@H]2C(=O)N3[C@@H]2SC(C)(C)[C@@H]3C(=O)O)c2ccccc2)C(=O)C1=O` [T-1220, sodium 6-[D(-)-α-(4-ethyl-2,3-dioxo-1-piperazinylcarbonylamino)phenylacetamido]penicillanate] was run?
A: Its value is greater than 50 mg/mouse.

Q: And the MIC [3]?
A: Its MIC is greater than 3200 µg/mL.

Q: What about the “ED50 (protection effect)” value [4] of the same molecule?
A: The value was greater than 50 mg/mouse.

Q: And the MIC [5]?
A: Its MIC is greater than 3200 µg/mL.

Q: And the “growth of the test bacterium” value ([6]; T-1220 50 + methicillin sodium 0 μg/ml)?
A: Its value is “+”.

Q: What about the “growth of the test bacterium” value ([6]; T-1220 100 + methicillin sodium 0 μg/ml) of the same molecule?
A: The value was “+”.

Q: And the “growth of the test bacterium” value ([6]; T-1220 200 + methicillin sodium 0 μg/ml)?
A: The value was “+”.

Q: What about the “growth of the test bacterium” value ([6]; T-1220 400 + methicillin sodium 0 μg/ml) of the same molecule?
A: The value was “+”.

Q: And the “growth of the test bacterium” value ([6]; T-1220 800 + methicillin sodium 0 μg/ml)?
A: The value was “+”.

Q: What about the “growth of the test bacterium” value ([6]; T-1220 1600 + methicillin sodium 0 μg/ml) of the same molecule?
A: Its value is “+”.

Q: And the “growth of the test bacterium” value ([6]; T-1220 3200 + methicillin sodium 0 μg/ml)?
A: Its value is “+”.

Q: And the “growth of the test bacterium” value ([7]; T-1220 50 μg/ml, methicillin sodium concentration not given)?
A: Its value is “+”.

Q: And the “growth of the test bacterium” value ([7]; T-1220 100 μg/ml, methicillin sodium concentration not given)?
A: The value was “+”.

Q: What about the “growth of the test bacterium” value ([7]; T-1220 200 μg/ml, methicillin sodium concentration not given) of the same molecule?
A: The value was “+”.

Q: What about the “growth of the test bacterium” value ([7]; T-1220 400 μg/ml, methicillin sodium concentration not given) of the same molecule?
A: Its value is “+”.

Q: What about the “growth of the test bacterium” value ([7]; T-1220 800 μg/ml, methicillin sodium concentration not given) of the same molecule?
A: Its value is “+”.

Q: What about the “growth of the test bacterium” value ([7]; T-1220 1600 μg/ml, methicillin sodium concentration not given) of the same molecule?
A: Its value is “+”.

Q: And the “growth of the test bacterium” value ([7]; T-1220 3200 μg/ml, methicillin sodium concentration not given)?
A: Its value is “+”.

Q: What does the source list for `COc1cccc(OC)c1C(=O)N[C@@H]1C(=O)N2[C@@H]1SC(C)(C)[C@@H]2C(=O)O` [Methicillin sodium]?
A: ED50 (protection effect) [2]: > 50 mg/mouse; MIC [3]: > 3200 µg/mL; ED50 (protection effect) [4]: > 50 mg/mouse; MIC [5]: > 3200 µg/mL; growth of the test bacterium [6, 8]: +; growth of the test bacterium [6, 9]: +; growth of the test bacterium [6, 10]: +; growth of the test bacterium ([6]; T-1220 0 + methicillin sodium 400 μg/ml): +; growth of the test bacterium ([6]; T-1220 0 + methicillin sodium 800 μg/ml): +; growth of the test bacterium ([6]; T-1220 0 + methicillin sodium 1600 μg/ml): +; growth of the test bacterium ([6]; T-1220 0 + methicillin sodium 3200 μg/ml): +; growth of the test bacterium ([7]; T-1220 0 + methicillin sodium 3.13 μg/ml): +; growth of the test bacterium ([7]; T-1220 0 + methicillin sodium 6.25 μg/ml): +; growth of the test bacterium ([7]; T-1220 0 + methicillin sodium 12.5 μg/ml): +; growth of the test bacterium ([7]; T-1220 0 + methicillin sodium 25 μg/ml): +; growth of the test bacterium [7, 8]: +; growth of the test bacterium [7, 9]: +; growth of the test bacterium [7, 10]: +

Q: What does the source list for `Cc1onc(-c2ccccc2Cl)c1C(=O)N[C@@H]1C(=O)N2[C@@H]1SC(C)(C)[C@@H]2C(=O)O` [Cloxacillin sodium]?
A: MIC [3]: > 3200 µg/mL; MIC [5]: > 3200 µg/mL

Q: With `Cc1onc(-c2c(Cl)cccc2Cl)c1C(=O)N[C@@H]1C(=O)N2[C@@H]1SC(C)(C)[C@@H]2C(=O)O` [Dicloxacillin] as the molecule, how does the “results in the Test Examples when used as the β-lactamase-inhibiting penicillin or cephalosporin” value [1] read?
A: The value was “results similar to those obtained with Methicillin and Cloxacillin”.
